What was measured:
MCT4 = target: T1, MCT4 (Homo sapiens, UniProt O15427); assay: MCT4 transport assay (L-lactate influx, BCECF-AM intracellular pH); assay type: cell-based; conditions: MDA-MB-231 cells expressing exclusively MCT4
T1 construct: MDA-MB-231 cells—a triple negative human breast cancer cell line expressing exclusively MCT4 (confirmed by Western blotting); host or cells: MDA-MB-231
T1 sequence (O15427 2-465 limits assumed): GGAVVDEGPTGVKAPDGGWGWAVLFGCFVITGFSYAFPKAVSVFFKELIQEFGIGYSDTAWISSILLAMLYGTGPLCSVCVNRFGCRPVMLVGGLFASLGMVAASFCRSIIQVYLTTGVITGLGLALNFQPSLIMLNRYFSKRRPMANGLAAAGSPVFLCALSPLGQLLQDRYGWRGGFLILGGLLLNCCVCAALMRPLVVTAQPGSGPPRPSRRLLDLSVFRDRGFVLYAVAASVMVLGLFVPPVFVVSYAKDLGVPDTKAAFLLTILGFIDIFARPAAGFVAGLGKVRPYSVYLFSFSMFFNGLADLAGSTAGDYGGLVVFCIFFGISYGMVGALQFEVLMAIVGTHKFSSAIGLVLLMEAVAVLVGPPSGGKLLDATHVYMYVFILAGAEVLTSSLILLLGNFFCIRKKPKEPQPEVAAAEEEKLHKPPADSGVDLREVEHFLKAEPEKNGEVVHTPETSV
Experimental: (§1) The compounds' efficacy in both assays was determined by calculating their IC50 value (the concentration of test compound that inhibited 50% of biological activity).
(§2) MCT4 is predominantly involved in cellular efflux of lactate from the cell, preventing intracellular acidification. In the MCT4 in vitro transport system described here it was possible to drive influx of lactate in the cells and test the compounds efficacy in preventing this process. MCT1 is involved in influx-efflux of lactate, and because it is closely related to MCT4, it is a major selectivity target for MCT4 inhibitor. The MCT1 in vitro transport system described here measured the influx of lactate in the cells and ability of test compounds in preventing this process.
(§3) Tyrode's Solution pH7.4 (NaCl 119 mM; KC1 5 mM; HEPES pH7.4 25 mM; CaCl2 2 mM; MgCl2 2 mM; Glucose 6 g/L)
(§4) The following assay was performed to assess MCT4 (MDA-MB-231 cell line) or MCT1 (BT-20 cell line) activity by monitoring the intracellular pH change that accompanies lactate/proton transport using the pH-sensitive fluorescent dye BCECF-AM.
(§5) Compound preparation: The compounds were serially diluted in 100% DMSO 1:3 for 8 pts and transferred (500 nl) to a 96-well plate by Echo.
(§6) Cell preparation: Cells were briefly rinsed with 10 ml of PBS solution to remove all traces of serum, trypsinized (0.05% Trypsin-EDTA) at 25° C. for 2-3 minutes and washed twice with Tyrode's solution. The cell viability and concentration were determined using Vi-Cell. Cells were resuspended in Tyrode's solution.
(§7) Cells were loaded with the pH sensitive dye BCECF-AM (5 uM final concentration from the 30 mM DMSO stock solution) at 37° C. for 30 minutes before being washed twice to remove excess dye and resuspended to 2 million/ml cells in Tyrode's solution. Cells were seeded into a 96-well plate (200,000 cells/well) directly onto the test compound or a reference compound for 10 minutes at 37° C. Following incubation with test compounds, 25 ul of 30 mM Sodium-L-lactate was added. This addition was performed on the FlexStation III as a part of a real-time kinetic protocol. The ratio of cellular fluorescence at 535 nm after excitation at 490 nm/440 nm was measured over time for baseline (pre-lactate addition) and post-lactate addition for 60 sec with or without compounds present. Inhibitory concentration response curves were generated for compounds and their IC50 values calculated.

MCT1 = target: T2, MCT1 (Homo sapiens, UniProt P53985); assay: MCT1 transport assay (L-lactate influx, BCECF-AM intracellular pH); assay type: cell-based; conditions: BT-20 cells expressing exclusively MCT1
T2 construct: BT-20 cells—a triple negative human breast cancer cell line expressing exclusively MCT1 (confirmed by Western blotting); host or cells: BT-20
T2 sequence (P53985 1-500): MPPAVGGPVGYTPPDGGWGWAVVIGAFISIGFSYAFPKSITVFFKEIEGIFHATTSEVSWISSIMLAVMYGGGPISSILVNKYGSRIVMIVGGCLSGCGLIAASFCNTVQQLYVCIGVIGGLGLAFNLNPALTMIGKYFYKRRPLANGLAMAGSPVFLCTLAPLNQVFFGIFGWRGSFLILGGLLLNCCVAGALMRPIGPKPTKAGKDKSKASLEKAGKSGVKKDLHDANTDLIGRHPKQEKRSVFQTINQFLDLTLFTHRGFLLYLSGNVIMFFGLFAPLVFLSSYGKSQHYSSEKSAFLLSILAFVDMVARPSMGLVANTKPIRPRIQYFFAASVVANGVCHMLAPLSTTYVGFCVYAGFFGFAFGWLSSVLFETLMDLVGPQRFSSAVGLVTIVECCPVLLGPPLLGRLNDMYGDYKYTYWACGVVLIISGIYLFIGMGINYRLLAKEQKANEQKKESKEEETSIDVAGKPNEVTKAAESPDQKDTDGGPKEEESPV
T2 sequence (P35613 140-385 partner limits assumed): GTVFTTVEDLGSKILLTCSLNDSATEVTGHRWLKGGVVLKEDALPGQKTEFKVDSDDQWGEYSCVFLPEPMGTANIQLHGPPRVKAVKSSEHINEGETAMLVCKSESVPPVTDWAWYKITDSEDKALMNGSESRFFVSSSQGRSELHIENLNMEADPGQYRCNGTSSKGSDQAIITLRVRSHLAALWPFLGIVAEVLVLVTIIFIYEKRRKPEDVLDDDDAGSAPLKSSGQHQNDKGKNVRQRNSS
Excerpt: The following in vitro MCT4 and MCT1 transport assays were used to measure the effect of the compounds on L-lactate influx into two different cell lines: • a) MDA-MB-231 cells—a triple negative human breast cancer cell line expressing exclusively MCT4 (confirmed by Western blotting) was used for the MCT4 transport assay, • b) BT-20 cells—a triple negative human breast cancer cell line expressing exclusively MCT1 (confirmed by Western blotting) was used for the
as §1, §2
BT-20 (ATCC); Media: EMEM+10% FBS+1% PS
as §3, §4, §5, §6, §7

Structure (SMILES)	IC50 (MCT4)	IC50 (MCT1)
Cc1nc2nc(C)c(O[C@@H]3CCN(c4ccc(-c5ccc(C(=O)N6CC(C(N)=O)C6)nn5)cc4)C3)c(C)n2n1 [Compound 17, (R)-1-(6-(4-(3-((2,5,7-trimethyl-[1,2,4]triazolo[1,5-a]pyrimidin-6-yl)oxy)pyrrolidin-1-yl)phenyl)pyridazine-3-carbonyl)azetidine-3-carboxamide]	500 to 1000 nM	> 1000 nM
Cc1nc2nc(C)c(O[C@@H]3CCN(c4ccc(-c5ccc(C(=O)N6CC(C(=O)N(C)C)C6)nn5)cc4)C3)c(C)n2n1 [Compound 18, (R)-N,N-dimethyl-1-(6-(4-(3-((2,5,7-trimethyl-[1,2,4]triazolo[1,5-a]pyrimidin-6-yl)oxy)pyrrolidin-1-yl)phenyl)pyridazine-3-carbonyl)azetidine-3-carboxamide]	< 100 nM	> 1000 nM
Cc1nc2nc(C)c(O[C@@H]3CCN(c4ccc(-c5ccc(C(=O)N6CCOCC6)nn5)cc4)C3)c(C)n2n1 [Compound 19, (R)-morpholino(6-(4-(3-((2,5,7-trimethyl-[1,2,4]triazolo[1,5-a]pyrimidin-6-yl)oxy)pyrrolidin-1-yl)phenyl)pyridazin-3-yl)methanone]	< 100 nM	> 1000 nM
Cc1cc2nc(C)c(O[C@@H]3CCN(c4ccc(-c5ccc(C(=O)N6CCOCC6)nn5)cc4)C3)c(C)n2n1 [Compound 20, (R)-morpholino(6-(4-(3-((2,5,7-trimethylpyrazolo[1,5-a]pyrimidin-6-yl)oxy)pyrrolidin-1-yl)phenyl)pyridazin-3-yl)methanone]	< 100 nM	> 1000 nM
Cc1nc2nc(C)c(O[C@@H]3CCN(c4cnc(C56CC(CN7CC8(COC8)C7)(C5)C6)nc4)C3)c(C)n2n1 [Compound 21, (R)-6-((3-(5-(3-((2,5,7-trimethyl-[1,2,4]triazolo[1,5-a]pyrimidin-6-yl)oxy)pyrrolidin-1-yl)pyrimidin-2-yl)bicyclo[1.1.1]pentan-1-yl)methyl)-2-oxa-6-azaspiro[3.3]heptane]	500 to 1000 nM	> 1000 nM
COC1CN(CC23CC(c4ncc(N5CC[C@@H](Oc6c(C)nc7nc(C)nn7c6C)C5)cn4)(C2)C3)C1 [Compound 22, (R)-6-((1-(2-(3-((3-methoxyazetidin-1-yl)methyl)bicyclo[1.1.1]pentan-1-yl)pyrimidin-5-yl)pyrrolidin-3-yl)oxy)-2,5,7-trimethyl-[1,2,4]triazolo[1,5-a]pyrimidine]	< 100 nM	> 1000 nM
Cc1nc2nc(C)c(O[C@@H]3CCN(c4cnc(C56CC(CN7CCOCC7)(C5)C6)nc4)C3)c(C)n2n1 [Compound 23, (R)-4-((3-(5-(3-((2,5,7-trimethyl-[1,2,4]triazolo[1,5-a]pyrimidin-6-yl)oxy)pyrrolidin-1-yl)pyrimidin-2-yl)bicyclo[1.1.1]pentan-1-yl)methyl)morpholine]	< 100 nM	> 1000 nM
Cc1nc2nc(C)c(O[C@@H]3CCN(c4cnc(C56CC(C(=O)N7CC8(COC8)C7)(C5)C6)nc4)C3)c(C)n2n1 [Compound 24, (R)-(2-oxa-6-azaspiro[3.3]heptan-6-yl)(3-(5-(3-((2,5,7-trimethyl-[1,2,4]triazolo[1,5-a]pyrimidin-6-yl)oxy)pyrrolidin-1-yl)pyrimidin-2-yl)bicyclo[1.1.1]pentan-1-yl)methanone]	> 1000 nM	> 1000 nM
COC1CN(C(=O)C23CC(c4ncc(N5CC[C@@H](Oc6c(C)nc7nc(C)nn7c6C)C5)cn4)(C2)C3)C1 [Compound 25, (R)-(3-methoxyazetidin-1-yl)(3-(5-(3-((2,5,7-trimethyl-[1,2,4]triazolo[1,5-a]pyrimidin-6-yl)oxy)pyrrolidin-1-yl)pyrimidin-2-yl)bicyclo[1.1.1]pentan-1-yl)methanone]	500 to 1000 nM	> 1000 nM
Cc1nc2nc(C)c(O[C@@H]3CCN(c4cnc(C56CC(C(=O)N7CCOCC7)(C5)C6)nc4)C3)c(C)n2n1 [Compound 26, (R)-morpholino(3-(5-(3-((2,5,7-trimethyl-[1,2,4]triazolo[1,5-a]pyrimidin-6-yl)oxy)pyrrolidin-1-yl)pyrimidin-2-yl)bicyclo[1.1.1]pentan-1-yl)methanone]	100 to 499 nM	> 1000 nM
Cc1nc2nc(C)c(O[C@@H]3CCN(c4ccc([C@H]5CC[C@H](C(=O)N6CC7(COC7)C6)CC5)cc4)C3)c(C)n2n1 [Compound 33, (2-oxa-6-azaspiro[3.3]heptan-6-yl)((1R,4r)-4-(4-((R)-3-((2,5,7-trimethyl-[1,2,4]triazolo[1,5-a]pyrimidin-6-yl)oxy)pyrrolidin-1-yl)phenyl)cyclohexyl)methanone]	< 100 nM	> 1000 nM
COC1CN(C(=O)[C@H]2CC[C@H](c3ccc(N4CC[C@@H](Oc5c(C)nc6nc(C)nn6c5C)C4)cc3)CC2)C1 [Compound 34, (3-methoxyazetidin-1-yl)((1R,4r)-4-(4-((R)-3-((2,5,7-trimethyl-[1,2,4]triazolo[1,5-a]pyrimidin-6-yl)oxy)pyrrolidin-1-yl)phenyl)cyclohexyl)methanone]	< 100 nM	> 1000 nM
Cc1nc2nc(C)c(O[C@@H]3CCN(c4ccc([C@H]5CC[C@H](C(=O)N6CCOCC6)CC5)cc4)C3)c(C)n2n1 [Compound 35, morpholino((1R,4r)-4-(4-((R)-3-((2,5,7-trimethyl-[1,2,4]triazolo[1,5-a]pyrimidin-6-yl)oxy)pyrrolidin-1-yl)phenyl)cyclohexyl)methanone]	< 100 nM	> 1000 nM
